By IC50 is commonly meant the midpoint of a concentration-inhibition curve. As a reminder, the pKa is the pH at which an ionisable group is half protonated.

Results on two molecules are retold here after patent US9162992B2, “Compounds and compositions for treatment of breathing control disorders or diseases” (GALLEON PHARMACEUTICALS, INC., priority 2010, dated 2015).

Series [1] has as its system spontaneously breathing rats. Description: Minute ventilation (MV) and cardiovascular parameters in naive rats. In kind it is in vivo, rat. Further details: unit not given here. The method, boiled down:
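Isoflurane-anesthetized rats, intubated and breathing spontaneously at 1.5% isoflurane, received compounds IV, typically 1 mpk, via femoral vein. Minute ventilation recorded as maximum peak response and change versus baseline. Mean arterial pressure and heart rate were monitored through a femoral arterial catheter.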

Series [2] deals with morphine-induced respiratory depression. Description: Effects of morphine and compound on arterial blood gases in the rat. In kind it is in vivo. As to conditions: for PaCO2 (% reversal) / PaO2 (% reversal) / SaO2 (% reversal) / pH (% reversal): morphine 10 mg/kg. The procedure:
Rats with pre-cannulated jugular vein and femoral arterial catheters (for administering drugs and obtaining blood samples respectively) were obtained from Harlan laboratories and kept at the animal facility at Galleon Pharmaceuticals until the experimental procedures. Each animal was dosed with morphine sulfate (10 mg/kg), dissolved in saline at a concentration of 10 mg/mL, via injection into the jugular vein over a period of 20 seconds with a 20 second flush of 0.9% NaCl saline. Prior to morphine administration, two 250 μL samples of arterial blood were aspirated from the femoral artery into a pre-heparinized syringe. The samples were analyzed on Radiometer's ABL Flex 800, where pO2, pCO2, pH, SaO2 and other parameters were recorded. Aspirated volumes of arterial blood were replaced by room temperature sterile saline (˜300 μL) slowly flushed back into the femoral arterial catheter of the rodent to prevent hypovolemia. Morphine was then administered and 2 minutes later another blood sample was taken.
The infusion started at t=15 minutes and ended at t=35 minutes. Arterial blood gas analysis occurred at time points t=12, 18, 25, 35, 40, 45, and 50 minutes.

For another series, the target named is T1, human KCNK9/TASK-3 (Homo sapiens, UniProt Q9NPC2).
T1 construct: expressed in transfected cells; host or cells: HEK cells (tetracycline-inducible)
Description: Thallium flux through human TASK-3 (KCNK9-HEK cells). The format is cell-based. Conditions: Tl+ flux; 3 nM to 30 μM; read-out: hTASK-3 IC50. The procedure:
CHO cells expressing recombinant tetracycline-inducible rat KCNK3/TASK-1 (KCNK3-CHO cells) were plated in poly-D-lysine coated 384-well plates at a density of 6,000 cells/well (50 μl/well of 120,000 cells/mL) and allowed to incubate for 72 hrs in the presence of 5% CO2 and 1 μg/mL tetracycline at 30° C. HEK cells expressing recombinant tetracycline-inducible human KCNK9/TASK-3 (KCNK9-HEK cells) were plated at a density of 15,000 cells per well (50 μl/well, 300,000 cells/mL) and incubated overnight at 37° C. and 5% CO2 in the presence of 1 μg/mL tetracycline.
Drug plates were generated from 10 mM 100% DMSO mother plates. Compounds were transferred to 384-well drug plates and titrated with sequential 1:3 dilutions in 100% DMSO for a total of 9 dilutions. A dilution plate is made by taking 2.4 μl from the mother plate and adding to […] of assay buffer for a 12% DMSO dilution plate. From this dilution plate, a final daughter plate is generated by taking 1 μA of the dilution plate and adding to 40 μA of assay buffer for a final DMSO concentration of 0.3%. Each compound was evaluated in duplicate and the concentration range evaluated was 3 nM to 30 μM.
When thallium was added to extracellular solution with a stimulus to open channels, Tl^+ flowed down its concentration gradient into the cells and channel activity was detected with an indicator dye, FluxOR™, that increased in cytosolic fluorescence. The FluxOR™ indicator dye was loaded into cells as a membrane permeable acetoxymethyl ester. On the day of each assay, FluxOR™ assay buffer was made fresh from Hank's Balanced Saline Solution (HBSS) buffered with 20 mM HEPES and pH adjusted to 7.4 with NaOH. Dye loading solution was prepared per manufacturer's instructions, and 25 μl of dye solution applied to each well with a multidropper after plating medium was removed manually from cells. Dye was allowed to load for 90 minutes at room temperature in the dark.
After the 90 min dye loading incubation and subsequent manual dye removal, 24 μl of the drug daughter plate was transfer to cell plates by a cybi-well system and then incubated at room temperature for 20 minutes to allow for equilibration within wells. Stimulation buffer was prepared from 5× chloride-free buffer, thallium, and potassium sulfate containing 5 times the desired final assay concentration of 10 mM K^+ 2.8 mM Tl^+. Cell plates were then transferred to an FDSS 6000 kinetic imaging plate reader (Hamamatsu). Fluorescence at 525 nm (excitation 488 nm) was measured for 10 seconds at 1 Hz to establish baseline for the entire plate. After baseline was established, 6 μl/well of stimulation buffer was added and fluorescence signal recorded for another 140 seconds.
From the fluorescence signals in the absence and presence of Galleon compounds, Inhibitory concentration curves were plotted and IC50 values were estimated using a curve fitting algorithm.

The nature of a further series: pKa. The format is physicochemical.
The mark [3] stands for this setting: 1 mpk IV, 15% DMA 85% D5W, pH 5-6.
Setting [4] is: Table 8, 1 mpk, 20% HPβCD, pH 5.

T1 sequence (Q9NPC2 whole entry): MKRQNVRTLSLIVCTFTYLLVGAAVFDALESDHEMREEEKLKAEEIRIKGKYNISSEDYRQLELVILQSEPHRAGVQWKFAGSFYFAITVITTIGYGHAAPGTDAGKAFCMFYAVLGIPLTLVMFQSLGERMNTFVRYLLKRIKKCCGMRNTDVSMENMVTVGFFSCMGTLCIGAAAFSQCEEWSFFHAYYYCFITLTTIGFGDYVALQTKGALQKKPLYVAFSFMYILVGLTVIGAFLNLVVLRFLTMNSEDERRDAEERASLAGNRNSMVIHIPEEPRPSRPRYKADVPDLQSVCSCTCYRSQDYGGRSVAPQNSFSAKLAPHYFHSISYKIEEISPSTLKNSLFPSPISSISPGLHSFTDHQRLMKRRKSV

In the case of `CCCNc1nc(NCCC)nc(N(C)OC)n1` [XXXV, N-(4,6-Bis-n-propylamino-[1,3,5]triazin-2-yl)-N,O-dimethyl-hydroxylamine], in series [1] (setting [3]), the “MV MPR” value came to 207 and the “MV ΔMV” value is 135. In addition, in series [1] (1 mpk IV, 20% HPβCD, pH 4-5), the “MV MPR” value turned out to be 344 and the “MV ΔMV” value came out at 210. In series [1] (setting [4]), the “MV DMV” value was 164 and the “MV MPR” value worked out at 267.

On to `CCCNc1nc(NCCC)nc(N(C)OC)n1.O=S(=O)(O)O` [XXXVI, N-(4,6-Bis-n-propylamino-[1,3,5]triazin-2-yl)-N,O-dimethyl-hydroxylamine hydrogen sulfate], for which the “arterial blood gases, reversal of opioid-induced respiratory depression” value in series [2] (infusion 0.1, 0.3 and 1.0 mg/kg/min, vs vehicle) is recorded as “significantly reverses opioid-induced respiratory depression”. For the same molecule, in series [2] (infusion 0.03 mg/kg/min), the “PaCO2 (% reversal)” value amounted to 18 % reversal, the “PaO2 (% reversal)” value was −2.0 % reversal, the “SaO2 (% reversal)” value came to 42 % reversal and the “pH (% reversal)” value was 20 % reversal. For the same molecule, in series [2] (infusion 0.1 mg/kg/min), the “PaCO2 (% reversal)” value is 47 % reversal, the “PaO2 (% reversal)” value amounted to 16 % reversal, the “SaO2 (% reversal)” value was 51 % reversal and the “pH (% reversal)” value stood at 37 % reversal. Also, in series [2] (infusion 0.3 mg/kg/min), the “PaCO2 (% reversal)” value was 72 % reversal, the “PaO2 (% reversal)” value was −16 % reversal, the “SaO2 (% reversal)” value is recorded as 43 % reversal and the “pH (% reversal)” value turned out to be 55 % reversal. Also, in series [2] (infusion 1 mg/kg/min), the “PaCO2 (% reversal)” value is 94 % reversal, the “PaO2 (% reversal)” value amounted to 26 % reversal, the “SaO2 (% reversal)” value is 62 % reversal and the “pH (% reversal)” value amounted to 60 % reversal. Moreover, the IC50 at human KCNK9/TASK-3 is above 30 µM. For the same molecule, in the series “pKa”, the pKa was 5.6.
